The text below walks through data of patent US20100173968A1, “SUB-TYPE SELECTIVE AZABICYCLOALKANE DERIVATIVES” (TARGACEPT, INC., priority 2007, published 2010).

Each structure is given as a SMILES string. Where two headings read alike, the source gives them in different places.

One test concerns the target α7 nAChR Subtype (Rattus norvegicus, UniProt Q05941). Put plainly: Radioligand binding at α7 nAChR subtype, inhibition of [3H]MLA binding, rat hippocampus membranes (HTS at 5 μM, then Ki). The note with it: for inhibition at 5 µM: read-out: α7 HTS outcome (α7 Ki).
In another test the target is α4β2 nAChR Subtype (Rattus norvegicus, UniProt P09483+P12390). Description: Radioligand binding at α4β2 nAChR subtype, inhibition of [3H]nicotine binding, rat cerebral cortex membranes. The note with it: [3H]nicotine 5 nM. As to the method:
The [^3H]nicotine (Specific Activity=81.5 Ci/mmol) was obtained from NEN Research Products. The binding of [^3H]nicotine was measured using a 3 h incubation at 4° C. […] Each filter was washed with ice-cold buffer (3×1 mL).
Each concentration was replicated in triplicate.

In another test the target is Human α4β2 (Homo sapiens, UniProt P17787+P43681). Description: Binding at human α4β2 (Ki); method not described.
Human α4β2, sequence (P43681 29-627 limits assumed): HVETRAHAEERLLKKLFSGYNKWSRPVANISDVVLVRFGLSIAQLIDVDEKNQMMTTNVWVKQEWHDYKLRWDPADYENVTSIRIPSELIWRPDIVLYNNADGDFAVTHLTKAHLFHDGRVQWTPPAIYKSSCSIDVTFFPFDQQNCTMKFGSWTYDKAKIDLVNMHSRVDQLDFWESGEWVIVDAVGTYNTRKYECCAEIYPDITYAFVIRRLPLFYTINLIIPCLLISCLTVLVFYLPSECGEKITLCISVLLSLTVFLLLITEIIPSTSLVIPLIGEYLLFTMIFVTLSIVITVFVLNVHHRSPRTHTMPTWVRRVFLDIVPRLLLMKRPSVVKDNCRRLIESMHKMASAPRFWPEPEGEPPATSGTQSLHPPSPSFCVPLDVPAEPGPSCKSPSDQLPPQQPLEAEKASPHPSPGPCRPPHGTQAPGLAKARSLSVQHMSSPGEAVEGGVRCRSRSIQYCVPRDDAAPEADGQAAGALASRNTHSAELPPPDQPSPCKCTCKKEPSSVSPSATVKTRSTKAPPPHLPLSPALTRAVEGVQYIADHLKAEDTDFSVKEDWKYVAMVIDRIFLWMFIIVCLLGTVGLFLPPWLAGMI
Human α4β2, sequence (P17787 26-502): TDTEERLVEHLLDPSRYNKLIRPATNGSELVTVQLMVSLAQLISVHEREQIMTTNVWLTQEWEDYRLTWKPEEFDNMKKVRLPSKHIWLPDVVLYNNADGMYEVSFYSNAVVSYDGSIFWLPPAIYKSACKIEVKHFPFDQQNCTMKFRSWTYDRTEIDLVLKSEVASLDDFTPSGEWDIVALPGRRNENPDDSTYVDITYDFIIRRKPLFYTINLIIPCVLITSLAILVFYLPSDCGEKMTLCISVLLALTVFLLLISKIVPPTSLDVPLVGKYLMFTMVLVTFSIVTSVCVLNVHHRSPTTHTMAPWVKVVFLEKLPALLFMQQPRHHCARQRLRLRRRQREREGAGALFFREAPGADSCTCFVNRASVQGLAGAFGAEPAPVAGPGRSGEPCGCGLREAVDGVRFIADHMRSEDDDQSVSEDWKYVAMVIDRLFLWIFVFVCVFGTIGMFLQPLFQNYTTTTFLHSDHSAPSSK

α4β2 nAChR Subtype, sequence (P09483 31-630): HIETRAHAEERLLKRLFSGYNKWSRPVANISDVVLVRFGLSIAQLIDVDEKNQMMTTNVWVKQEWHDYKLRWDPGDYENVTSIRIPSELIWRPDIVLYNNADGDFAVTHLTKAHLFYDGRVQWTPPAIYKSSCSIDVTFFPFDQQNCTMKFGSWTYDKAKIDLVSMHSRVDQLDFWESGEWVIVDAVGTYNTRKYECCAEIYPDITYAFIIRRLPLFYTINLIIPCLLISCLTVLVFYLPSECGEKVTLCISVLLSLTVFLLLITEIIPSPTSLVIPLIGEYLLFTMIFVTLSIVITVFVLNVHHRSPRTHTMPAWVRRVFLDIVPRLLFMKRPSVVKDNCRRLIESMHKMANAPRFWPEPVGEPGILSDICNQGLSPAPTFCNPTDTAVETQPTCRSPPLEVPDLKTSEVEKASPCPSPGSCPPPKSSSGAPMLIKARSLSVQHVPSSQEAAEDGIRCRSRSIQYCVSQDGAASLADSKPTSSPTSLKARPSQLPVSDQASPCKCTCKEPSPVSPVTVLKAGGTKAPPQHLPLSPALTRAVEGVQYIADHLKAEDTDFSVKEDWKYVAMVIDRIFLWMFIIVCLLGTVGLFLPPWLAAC
α4β2 nAChR Subtype, sequence (P12390 25-500): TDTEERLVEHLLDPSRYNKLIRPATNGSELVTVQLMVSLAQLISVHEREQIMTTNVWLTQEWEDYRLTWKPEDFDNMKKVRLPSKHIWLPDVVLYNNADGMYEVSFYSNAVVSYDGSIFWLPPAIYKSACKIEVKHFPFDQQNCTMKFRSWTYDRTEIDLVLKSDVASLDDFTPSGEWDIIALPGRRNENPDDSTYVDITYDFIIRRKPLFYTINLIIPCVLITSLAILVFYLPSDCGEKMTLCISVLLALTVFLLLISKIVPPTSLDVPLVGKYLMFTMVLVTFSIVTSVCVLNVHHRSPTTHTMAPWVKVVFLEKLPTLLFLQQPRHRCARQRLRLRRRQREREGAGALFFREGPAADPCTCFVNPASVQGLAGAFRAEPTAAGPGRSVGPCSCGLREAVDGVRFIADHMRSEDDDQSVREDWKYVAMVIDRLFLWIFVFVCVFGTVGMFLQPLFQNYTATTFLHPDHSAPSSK
α7 nAChR Subtype, sequence (Q05941 23-502): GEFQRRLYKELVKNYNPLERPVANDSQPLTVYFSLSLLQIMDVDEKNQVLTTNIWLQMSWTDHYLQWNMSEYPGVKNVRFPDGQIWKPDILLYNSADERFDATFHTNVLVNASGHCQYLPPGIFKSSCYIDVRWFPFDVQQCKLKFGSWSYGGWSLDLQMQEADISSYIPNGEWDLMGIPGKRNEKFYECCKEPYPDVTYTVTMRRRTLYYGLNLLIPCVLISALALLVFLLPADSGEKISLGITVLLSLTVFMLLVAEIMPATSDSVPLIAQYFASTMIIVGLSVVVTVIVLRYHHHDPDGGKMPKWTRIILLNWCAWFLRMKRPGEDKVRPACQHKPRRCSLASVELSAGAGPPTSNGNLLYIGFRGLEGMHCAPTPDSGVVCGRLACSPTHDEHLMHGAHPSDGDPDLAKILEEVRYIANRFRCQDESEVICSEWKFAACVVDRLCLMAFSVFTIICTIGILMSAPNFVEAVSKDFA

As a reminder, the Ki is a measure of affinity in units of concentration, obtained from inhibition or displacement. As to `CC(C)(C)C(=O)C1C[C@H]2CNC[C@H]2C1` (mixture of isomers) [1-(3-azabicyclo[3.3.0]oct-7-yl)-2,2-dimethyl-1-propanone], at α7 nAChR Subtype, the inhibition at 5 µM is less than 50%. The Ki on α4β2 nAChR Subtype (read-out: Rat α4β2 Ki) was determined as 21.4 nM; on Human α4β2 it was 4.2 nM.
`CCC(C)C(=O)C1C[C@H]2CNC[C@H]2C1` (mixture of isomers) [1-(3-azabicyclo[3.3.0]oct-7-yl)-2-methyl-1-butanone]: on α7 nAChR Subtype, the inhibition at 5 µM was less than 50%. Further, the inhibitory constant (Ki) on α4β2 nAChR Subtype (read-out: Rat α4β2 Ki) was determined as 11.1 nM; at Human α4β2, 3.3 nM.
As for `CC(C)C(=O)C1C[C@H]2CNC[C@H]2C1` (mixture of isomers) [1-(3-azabicyclo[3.3.0]oct-7-yl)-2-methyl-1-propanone], the inhibitory constant (Ki) on α7 nAChR Subtype amounted to 2380 nM; at α4β2 nAChR Subtype (Rat α4β2 Ki) it was 0.3 nM; at Human α4β2, 0.2 nM.
For the compound `CC(C)CC(=O)C1C[C@H]2CNC[C@H]2C1` (mixture of isomers) [1-(3-azabicyclo[3.3.0]oct-7-yl)-3-methyl-1-butanone], at α7 nAChR Subtype, the inhibition at 5 µM was less than 50%. Besides, the Ki was determined as 27.3 nM on α4β2 nAChR Subtype (read-out: Rat α4β2 Ki) and 4.6 nM on Human α4β2.
The matching figures for `CC(CF)OC(=O)C1C[C@H]2CNC[C@H]2C1` (mixture of isomers) [1-fluoroprop-2-yl 3-azabicyclo[3.3.0]octane-7-carboxylate]: less than 50%, 271 nM and 112 nM.
As for `O=C(OCCF)C1C[C@H]2CNC[C@H]2C1` (mixture of isomers) [2-fluoroethyl 3-azabicyclo[3.3.0]octane-7-carboxylate], the inhibition at 5 µM on α7 nAChR Subtype was less than 50%. Moreover, the figures for the Ki on α4β2 nAChR Subtype (read-out: Rat α4β2 Ki) and at Human α4β2 were 55.1 nM and 102 nM, respectively.
In the case of `NC(=O)C1C[C@H]2CNC[C@H]2C1` (mixture of isomers) [3-azabicyclo[3.3.0]octane-7-carboxamide], the figures for the Ki on α7 nAChR Subtype, at α4β2 nAChR Subtype (read-out: Rat α4β2 Ki) and on Human α4β2 were 8280 nM, 394 nM and 320 nM, respectively.
On to `O=C(c1occc1Br)C1C[C@H]2CNC[C@H]2C1` (mixture of isomers) [3-bromofuran-2-yl(3-azabicyclo[3.3.0]oct-7-yl)methanone], for which the inhibition at 5 µM at α7 nAChR Subtype is less than 50%. Also, the figures for the Ki at α4β2 nAChR Subtype (read-out: Rat α4β2 Ki) and on Human α4β2 were 2.8 nM and 0.9 nM, respectively.
For the compound `O=C(c1ccc(F)cc1)C1C[C@H]2CNC[C@H]2C1` (mixture of isomers) [4-fluorophenyl(3-azabicyclo[3.3.0]oct-7-yl)methanone], the inhibition at 5 µM on α7 nAChR Subtype was less than 50%. Moreover, the figures for the Ki on α4β2 nAChR Subtype (read-out: Rat α4β2 Ki) and on Human α4β2 were 321 nM and 134 nM, respectively.
Turning to `Cc1ccc(C(=O)C2C[C@H]3CNC[C@H]3C2)o1` (mixture of isomers) [5-methylfuran-2-yl(3-azabicyclo[3.3.0]oct-7-yl)methanone], the inhibition at 5 µM on α7 nAChR Subtype was less than 50%. Further, the figures for the Ki on α4β2 nAChR Subtype (read-out: Rat α4β2 Ki) and at Human α4β2 were 74.3 nM and 37 nM, respectively.
In the case of `O=C(C1C[C@H]2CNC[C@H]2C1)N1CCCCO1` (mixture of isomers) [(3-azabicyclo[3.3.0]oct-7-yl)(1-oxazinan-2-yl)methanone], the Ki was not below 10000 nM at α7 nAChR Subtype (read-out: α7 Ki, [3H]MLA 5 nM, rat hippocampus); 17.4 nM at α4β2 nAChR Subtype (read-out: Rat α4β2 Ki); 5.5 nM at Human α4β2.
`O=C(C1C[C@H]2CNC[C@H]2C1)N1CC=CCC1` (mixture of isomers) [(3-azabicyclo[3.3.0]oct-7-yl)(2,3,6-trihydropyridin-1-yl)methanone]: the inhibition at 5 µM at α7 nAChR Subtype was less than 50%. Further, the values for the Ki at α4β2 nAChR Subtype (read-out: Rat α4β2 Ki) and at Human α4β2 were 46.3 nM and 28.4 nM, respectively.
As for `O=C(C1C[C@H]2CNC[C@H]2C1)N1CCC[C@@H]1CO` (mixture of isomers) [(R)-(2-(hydroxymethyl)-1-pyrrolidinyl)(3-azabicyclo[3.3.0]oct-7-yl)methanone], at α7 nAChR Subtype, the inhibition at 5 µM is less than 50%. For the same compound, the Ki at α4β2 nAChR Subtype (read-out: Rat α4β2 Ki) came to 387 nM; at Human α4β2, 255 nM.
On to `O=C(C1C[C@H]2CNC[C@H]2C1)N1CCC[C@H]1CO` (mixture of isomers) [(S)-(2-(hydroxymethyl)-1-pyrrolidinyl)(3-azabicyclo[3.3.0]oct-7-yl)methanone], for which the inhibition at 5 µM on α7 nAChR Subtype is less than 50%. The values for the Ki at α4β2 nAChR Subtype (read-out: Rat α4β2 Ki) and on Human α4β2 were 537 nM and 271 nM, respectively.
Regarding `O=C(OCc1ccoc1)C1C[C@H]2CNC[C@H]2C1` (mixture of isomers) [(furan-3-yl)methyl 3-azabicyclo[3.3.0]octane-7-carboxylate], the inhibition at 5 µM on α7 nAChR Subtype is less than 50%. In addition, the Ki on α4β2 nAChR Subtype (read-out: Rat α4β2 Ki) was 19.6 nM; at Human α4β2, 16.3 nM.
